Values quoted from earlier work, collected in US20060024236A1, “Bowel preparation for virtual colonoscopy” (priority 2004, published 2006).

Legend:
[1] = compared with PEG, cleansing before CC, meta-analysis of trials
[2] = compared with PEG

Compound	efficacy of colonic cleansing [1]	tolerability of oral cleansing agent [1]	residual colonic fluid at VC [2]	opacification of residual colonic fluid (oral)	tagging of residual fecal material to distinguish it from true colonic polyps (oral, given as part of the colon prep)	interference with subsequent CC examination (orally administered)
O=P(O)(O)O [NaP, sodium phosphate]	more efficacious	better tolerated	significantly less residual colonic fluid			
O=S(=O)([O-])[O-].[Ba+2] [barium sulfate]				does not adequately opacify	effective	does not interfere
